Data taken from PubChem BioAssay (NCI).
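Here, GI50 denotes the concentration required for 50% inhibition of growth. TGI: concentration producing complete growth inhibition.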

Key:
Assay in all cases: DTP human tumour cell line panel, 384-well format
M14 melanoma = system: M14 melanoma
SW-620 colon = system: SW-620 colon
MALME-3M melanoma = system: MALME-3M melanoma
SK-OV-3 ovarian = system: SK-OV-3 ovarian
SK-MEL-28 melanoma = system: SK-MEL-28 melanoma
786-0 renal = system: 786-0 renal
TK-10 renal = system: TK-10 renal
MDA-MB-231 breast = system: MDA-MB-231 breast
UACC-257 melanoma = system: UACC-257 melanoma
NCI-H23 lung = system: NCI-H23 lung
OVCAR-5 ovarian = system: OVCAR-5 ovarian
OVCAR-4 ovarian = system: OVCAR-4 ovarian
SNB-19 CNS = system: SNB-19 CNS
SF-539 CNS = system: SF-539 CNS
HCC-2998 colon = system: HCC-2998 colon
T-47D breast = system: T-47D breast
HCT-116 colon = system: HCT-116 colon
NCI-H322M lung = system: NCI-H322M lung
NCI-H460 NSCLC = system: NCI-H460 NSCLC
LOX IMVI melanoma = system: LOX IMVI melanoma
MCF7 breast = system: MCF7 breast
NCI/ADR-RES ovarian = system: NCI/ADR-RES ovarian
A549 NSCLC = system: A549 NSCLC
PC-3 prostate = system: PC-3 prostate
SF-268 CNS = system: SF-268 CNS
HCT-15 colon = system: HCT-15 colon
SN12C renal = system: SN12C renal
K-562 leukemia = system: K-562 leukemia
MDA-MB-435 melanoma = system: MDA-MB-435 melanoma
A498 renal = system: A498 renal
UO-31 renal = system: UO-31 renal
HT29 colon = system: HT29 colon
HOP-62 NSCLC = system: HOP-62 NSCLC
CCRF-CEM leukemia = system: CCRF-CEM leukemia
CAKI-1 renal = system: CAKI-1 renal
SK-MEL-2 melanoma = system: SK-MEL-2 melanoma
SF-295 CNS = system: SF-295 CNS
SK-MEL-5 melanoma = system: SK-MEL-5 melanoma
ACHN renal = system: ACHN renal
BT-549 breast = system: BT-549 breast
RPMI-8226 leukemia = system: RPMI-8226 leukemia
U251 glioblastoma = system: U251 glioblastoma
NCI-H226 lung = system: NCI-H226 lung
DU-145 prostate = system: DU-145 prostate
HS 578T breast = system: HS 578T breast
SNB-75 CNS = system: SNB-75 CNS
HOP-92 NSCLC = system: HOP-92 NSCLC
MDA-MB-468 breast = system: MDA-MB-468 breast
MOLT-4 leukemia = system: MOLT-4 leukemia
EKVX NSCLC = system: EKVX NSCLC
COLO 205 colon = system: COLO 205 colon
RXF 393 renal = system: RXF 393 renal
UACC-62 melanoma = system: UACC-62 melanoma
OVCAR-8 ovarian = system: OVCAR-8 ovarian
KM12 colon = system: KM12 colon
IGROV1 ovarian = system: IGROV1 ovarian
HL-60(TB) leukemia = system: HL-60(TB) leukemia
NCI-H522 lung = system: NCI-H522 lung
OVCAR-3 ovarian = system: OVCAR-3 ovarian

`Cc1c(N)nc([C@H](CC(N)=O)NC[C@H](N)C(N)=O)nc1C(=O)N[C@H](C(=O)N[C@H](C)[C@@H](O)[C@H](C)C(=O)N[C@H](C(=O)NCCc1nc(-c2nc(C(=O)NCCC[S+](C)C)cs2)cs1)[C@@H](C)O)C(OC1OC(CO)C(O)C(O)C1OC1OC(CO)C(O)C(OC(N)=O)C1O)c1cnc[nH]1` (some centres not stated) gave a GI50 (M14 melanoma) of 1420 nM, a TGI (M14 melanoma) of 23.2 µM and a GI50 (SW-620 colon) of 4.95 µM. For the same compound, the TGI (SW-620 colon) was over 100 µM, the GI50 (MALME-3M melanoma) was 18.2 µM and the TGI (MALME-3M melanoma) was over 100 µM. For the same compound, the GI50 (SK-OV-3 ovarian) was 4.84 µM, the TGI (SK-OV-3 ovarian) was over 64.7 µM and the GI50 (SK-MEL-28 melanoma) was 43.7 µM. For the same compound, the TGI (SK-MEL-28 melanoma) was over 100 µM, the GI50 ([…]-0 renal) was 945 nM and the GI50 (TK-10 renal) was 8.01 µM. For the same compound, the TGI (TK-10 renal) was over 42.1 µM, the GI50 (MDA-MB-231 breast) was 31.2 µM and the TGI (MDA-MB-231 breast) was over 100 µM. It also gave a GI50 (UACC-257 melanoma) of over 68 µM, a TGI (UACC-257 melanoma) of over 100 µM and a GI50 (NCI-H23 lung) of 1210 nM. For the same compound, the TGI (NCI-H23 lung) was 11.9 µM, the GI50 (OVCAR-5 ovarian) was 6.43 µM and the TGI (OVCAR-5 ovarian) was over 76 µM. It also gave a GI50 (OVCAR-4 ovarian) of 13 µM, a TGI (OVCAR-4 ovarian) of over 54.7 µM and a GI50 (SNB-19 CNS) of 6.76 µM. For the same compound, the TGI (SNB-19 CNS) was over 52 µM, the GI50 (SF-539 CNS) was 234 nM and the TGI (SF-539 CNS) was 4.56 µM. The GI50 (HCC-2998 colon) was 6.35 µM, the TGI (HCC-2998 colon) was 53.3 µM and the GI50 (T-47D breast) was 9.71 µM. It also gave a TGI (T-47D breast) of over 82.5 µM, a GI50 (HCT-116 colon) of 71 nM and a TGI (HCT-116 colon) of 19 µM. It also gave a GI50 (NCI-H322M lung) of 26.1 µM, a TGI (NCI-H322M lung) of over 100 µM and a GI50 (NCI-H460 NSCLC) of 331 nM. It also gave a TGI (NCI-H460 NSCLC) of 14.6 µM, a GI50 (LOX IMVI melanoma) of 570 nM and a TGI (LOX IMVI melanoma) of 12.3 µM. For the same compound, the GI50 (MCF7 breast) was 10 µM, the TGI (MCF7 breast) was over 100 µM and the GI50 (NCI/ADR-RES ovarian) was 273 nM. For the same compound, the TGI (NCI/ADR-RES ovarian) was 5.9 µM, the GI50 (A549 NSCLC) was 1650 nM and the TGI (A549 NSCLC) was over 92.1 µM. The GI50 (PC-3 prostate) was 46.5 µM, the TGI (PC-3 prostate) was over 100 µM and the GI50 (SF-268 CNS) was 600 nM. For the same compound, the TGI (SF-268 CNS) was 8.37 µM, the GI50 (HCT-15 colon) was 400 nM and the TGI (HCT-15 colon) was 16.9 µM. The GI50 (SN12C renal) was 1620 nM, the TGI (SN12C renal) was 34.9 µM and the GI50 (K-562 leukemia) was 8.46 µM. The TGI (K-562 leukemia) was over 79 µM, the GI50 (MDA-MB-435 melanoma) was 71.3 µM and the TGI (MDA-MB-435 melanoma) was over 100 µM. It also gave a GI50 (A498 renal) of 1510 nM, a TGI (A498 renal) of 25.9 µM and a GI50 (UO-31 renal) of 2080 nM. It also gave a TGI (UO-31 renal) of over 35.3 µM, a GI50 (HT29 colon) of 16.9 µM and a TGI (HT29 colon) of over 100 µM. For the same compound, the GI50 (HOP-62 NSCLC) was 169 nM, the TGI (HOP-62 NSCLC) was 1190 nM and the GI50 (CCRF-CEM leukemia) was 2080 nM. The TGI (CCRF-CEM leukemia) was 6.72 µM, the GI50 (CAKI-1 renal) was 1430 nM and the TGI (CAKI-1 renal) was over 44.8 µM. It also gave a GI50 (SK-MEL-2 melanoma) of 11.1 µM, a TGI (SK-MEL-2 melanoma) of 25.5 µM and a GI50 (SF-295 CNS) of 128 nM. It also gave a TGI (SF-295 CNS) of 824 nM, a GI50 (SK-MEL-5 melanoma) of 211 nM and a TGI (SK-MEL-5 melanoma) of 1170 nM. It also gave a GI50 (ACHN renal) of 164 nM, a TGI (ACHN renal) of 929 nM and a GI50 (BT-549 breast) of 1060 nM. It also gave a TGI (BT-549 breast) of 22.4 µM, a GI50 (RPMI-8226 leukemia) of 7.9 µM and a TGI (RPMI-8226 leukemia) of over 100 µM. For the same compound, the GI50 (U251 glioblastoma) was 522 nM, the TGI (U251 glioblastoma) was 11.2 µM and the GI50 (NCI-H226 lung) was 778 nM. The TGI (NCI-H226 lung) was 9.52 µM, the GI50 (DU-145 prostate) was 1710 nM and the TGI (DU-145 prostate) was over 20.5 µM. It also gave a GI50 (HS 578T breast) of 266 nM, a TGI (HS 578T breast) of 5.4 µM and a GI50 (SNB-75 CNS) of 1320 nM. For the same compound, the TGI (SNB-75 CNS) was 6.43 µM, the GI50 (HOP-92 NSCLC) was 648 nM and the TGI (HOP-92 NSCLC) was 23.6 µM. For the same compound, the GI50 (MDA-MB-468 breast) was 970 nM, the TGI (MDA-MB-468 breast) was 4.28 µM and the GI50 (MOLT-4 leukemia) was 439 nM. For the same compound, the TGI (MOLT-4 leukemia) was 1530 nM, the GI50 (EKVX NSCLC) was over 48.2 µM and the TGI (EKVX NSCLC) was over 100 µM. The GI50 (COLO 205 colon) was 2960 nM, the TGI (COLO 205 colon) was 7.57 µM and the GI50 (RXF 393 renal) was 2200 nM. For the same compound, the TGI (RXF 393 renal) was 10.2 µM, the GI50 (UACC-62 melanoma) was 1260 nM and the TGI (UACC-62 melanoma) was 20 µM. It also gave a GI50 (OVCAR-8 ovarian) of 410 nM, a TGI (OVCAR-8 ovarian) of 21 µM and a GI50 (KM12 colon) of 1780 nM. It also gave a TGI (KM12 colon) of 27.8 µM, a GI50 (IGROV1 ovarian) of 3.19 µM and a TGI (IGROV1 ovarian) of 43.6 µM. It also gave a GI50 (HL-60(TB) leukemia) of 2660 nM, a TGI (HL-60(TB) leukemia) of 7.29 µM and a GI50 (NCI-H522 lung) of 2210 nM. The TGI (NCI-H522 lung) was 16.4 µM, the GI50 (OVCAR-3 ovarian) was 3.67 µM and the TGI (OVCAR-3 ovarian) was 13.7 µM.
